Experimental data published in ChEMBL document CHEMBL1137781, “Synthesis and preclinical evaluation of novel PET probes for P-glycoprotein function and expression” (J Med Chem, 2009).

What was measured:
Caco-2 = assay: Ratio of permeability from basolateral to apical side over apical to basolateral side in human Caco-2 cells; format: ADME, cell-based
NCI/ADR-RES [1] = assay: Inhibition of Pgp in human MCF7/ADR cells assessed as increase in doxorubicin accumulation at 20 uM relative to untreated control; format: cell-based
NCI/ADR-RES [2] = assay: Inhibition of Pgp in human MCF7/ADR cells assessed as potentiation of doxorubicin-induced cytotoxicity at 20 uM relative to untreated control; format: cell-based; design: Activity: scale not given: the % may be the effect or the level left

In the case of `COc1cc2c(cc1OC)CN(CCCC1CCCc3c(OC)cccc31)CC2` (stereo not drawn), the Ratio (Caco-2) is reported as 18, the fold change (FC) (NCI/ADR-RES [1]) is reported as 4.8 and the Activity (NCI/ADR-RES [2]) is reported as 85%.
